Results from article PMC5376326, “Inhibition of ANO1 by luteolin and its cytotoxicity in human prostate cancer PC-3 cells” (PLoS ONE, 2017).

Key:
ANO1 [1] = molecular target: T1, ANO1 (Homo sapiens, UniProt Q5XXA6); assay: YFP quenching assay of ANO1 activity in PC-3 cells; type: cell-based; details: PC-3 cells expressing high levels of ANO1; indicated concentrations
T1 construct: PC-3 prostate cancer cells expressing high levels of ANO1 endogenously; endogenous in cells; host or cells: PC-3 cells (clones with high ANO1 expression; stably transfected only with the YFP halide sensor)
T1 sequence (Q5XXA6 1-986): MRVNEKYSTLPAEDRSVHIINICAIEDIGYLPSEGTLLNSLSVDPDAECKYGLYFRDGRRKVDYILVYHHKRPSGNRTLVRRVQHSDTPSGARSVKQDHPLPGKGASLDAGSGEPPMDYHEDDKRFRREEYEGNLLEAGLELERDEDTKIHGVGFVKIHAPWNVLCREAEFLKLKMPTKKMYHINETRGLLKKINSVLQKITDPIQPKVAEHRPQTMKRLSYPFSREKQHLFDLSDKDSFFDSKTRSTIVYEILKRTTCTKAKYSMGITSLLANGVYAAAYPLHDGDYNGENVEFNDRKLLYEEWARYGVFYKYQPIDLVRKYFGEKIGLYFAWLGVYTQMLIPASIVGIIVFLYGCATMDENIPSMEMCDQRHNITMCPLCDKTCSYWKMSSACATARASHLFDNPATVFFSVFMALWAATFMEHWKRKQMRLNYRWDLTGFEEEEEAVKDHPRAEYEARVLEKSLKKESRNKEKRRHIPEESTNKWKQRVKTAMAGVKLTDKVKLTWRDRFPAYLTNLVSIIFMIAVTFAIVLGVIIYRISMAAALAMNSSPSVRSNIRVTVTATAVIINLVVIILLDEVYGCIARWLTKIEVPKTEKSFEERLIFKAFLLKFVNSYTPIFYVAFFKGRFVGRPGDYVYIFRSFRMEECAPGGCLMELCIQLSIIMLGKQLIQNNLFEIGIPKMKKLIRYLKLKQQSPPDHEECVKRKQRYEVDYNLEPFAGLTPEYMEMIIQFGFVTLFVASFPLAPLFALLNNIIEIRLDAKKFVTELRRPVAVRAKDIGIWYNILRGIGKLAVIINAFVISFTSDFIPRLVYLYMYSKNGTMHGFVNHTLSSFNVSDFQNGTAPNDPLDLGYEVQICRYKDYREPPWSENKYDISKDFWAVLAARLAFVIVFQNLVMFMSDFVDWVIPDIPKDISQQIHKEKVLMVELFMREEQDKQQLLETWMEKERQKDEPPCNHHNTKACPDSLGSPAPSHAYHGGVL
Method: Initial iodide influx rate was determined from the initial slope of fluorescence decrease, by nonlinear regression, following infusion of iodide with ATP.

ANO1 [2] = assay: Immunoblot of ANO1 protein levels in PC-3 cells; type: cell-based, human
Method: Immunoblotting was performed as described previously. FRT and PC-3 cells were lysed with cell lysis buffer (50 mM Tris-HCl (pH 7.4), 1% Nonidet P-40, 0.25% sodium deoxycholate, 150 mM NaCl, 1 mM EDTA, 1 mM Na3VO4, and protease inhibitor mixture). Whole cell lysates were centrifuged at 15,000 g for 10 min at 4°C to remove the cell debris, and supernatant protein was separated by 4–12% Tris-glycine precast gel (KOMA BIOTECH, Seoul, Korea) and then transferred onto PVDF membrane (Millipore, Billerica, MA). Membrane was blocked with 5% non-fat skim milk in Tris-buffered saline including 0.1% Tween 20 (TBST) for 1 hour at room temperature. The membrane was then incubated overnight with primary ANO1 antibody (1:500 dilution, ab64085; Abcam Inc., Cambridge, MA). After washing three times with TBST, the blot was further incubated for 60 min at room temperature with an anti-rabbit secondary antibody (Santa Cruz Biotechnology, CA). The membrane was then washed three times with TBST and then visualized using the ECL Plus western blotting detection system (GE Healthcare, NJ).

ANO1 [3] = assay: Quantitative real-time PCR of ANO1 mRNA in PC-3 cells; type: cell-based, human
Method: Total messenger RNA (mRNA) was extracted by using a TRIzol reagent (Invitrogen, Carlsbad, CA). Quantitative Real-time PCRs were performed using the StepOnePlus Real-Time PCR System (Applied Biosystems, CA) and Thunderbird SYBR qPCR mix (Toyobo, Osaka, Japan). The thermal cycling conditions comprised an initial step at 95°C for 5 minutes followed by 40 cycles at 95°C for 10 seconds, 55°C for 20 seconds, and 72°C for 10 seconds in a 96-well reaction plate. Primers used were as follows: ANO1-sense 5′-GGAGAAGCAGCATCTATTTG-3′, ANO1-antisense 5′ GATCTCATAGACAATCGTGC-3′, β-actin-sense 5′-GCAAAGACCTGTACGCCAACAC-3′ and β-actin-antisense 5′-ATCTCCTTCTGCATCCTGTC-3′. ANO1 mRNA levels were normalized to β-actin levels and the fold-change in gene expression was determined by using 2^-ΔΔCT method. Quantitative PCR experiments were carried out in triplicates.

PC-3 cells = assay: Scratch wound healing assay in PC-3 cells; type: cell-based, human; details: 10 and 30 μM; 48 h post-wound
Method: PC-3 cells were cultured in a 96-well plate until they reached ~80% confluence as a monolayer and then the cell layer was wounded using a 96-Well WoundMaker (Essen BioScience, MI) and washed twice with fresh serum free media. The cells were incubated with serum free medium, and images of the wounds were taken using the IncuCyte ZOOM (Essen BioScience, MI). The wound recovery properties of test compounds were analyzed by the IncuCyte software.

[4] = parameters: method as in PMID 9827549; details: rat; oral 50 μmol/kg (~14.3 mg/kg) in propyleneglycol; cited from earlier work

Compound | Inhibition of ANO1 activity (ANO1 [1]) | Effect on ANO1 protein levels (ANO1 [2]; PC-3 cells expressing high levels of ANO1, 24 hour, indicated concentrations) | Change of ANO1 gene expression levels (ANO1 [3]; 10 μM) | Inhibition of wound recovery, high versus low ANO1 expressing PC-3 cells (PC-3 cells) | Decrease of ANO1 protein levels (ANO1 [2]; 10 μM, 24 hour, PC-3 cells expressing high levels of ANO1) [%] | Decrease of ANO1 protein levels (ANO1 [2]; 30 μM, 24 hour, PC-3 cells expressing high levels of ANO1) [%] | Time-dependent change of ANO1 protein levels (ANO1 [2]; 30 μM, PC-3 cells) | Increase of ANO1 mRNA expression levels (ANO1 [3]; 10 μM) | Change of ANO1 gene expression levels (ANO1 [3]; 30 μM) | Maximum plasma level of free luteolin [4] | Maximum plasma level of total luteolin (free luteolin and its conjugates) [4]
O=c1c(O)c(-c2ccc(O)cc2)oc2cc(O)cc(O)c12 [Kaempferol] | significantly inhibited | did not affect | slightly increased | – | – | – | – | – | – | – | –
O=c1cc(-c2ccc(O)c(O)c2)oc2cc(O)cc(O)c12 [luteolin] | potently inhibited | – | slightly increased | more strongly inhibited | 41.2 ± 1.5 | 63.1 ± 5.7 | significantly decreased in a time-dependent manner | ~ 1.3 fold | significantly decreased | ~ 3.08 μM | ~ 15.5 μM
